Each compound was assayed against fully phosphorylated, active Mouse ERK2 protein (Mus musculus (Mouse), UniProt P63085) (assay: Active ERK2 (aERK) IMAP assay). Settings: IMAP fluorescence polarization; 30 μM ATP; 30 minute pre-incubation.
Type: biochemical
Procedure: 14 μl of kinase buffer (10 mM Tris.HCl pH 7.2, 10 mM MgCl2, 0.01% Tween-20, 1 mM DTT) containing 0.4 ng unphosphorylated Mouse ERK2 protein was added to each well of a black 384-well assay plate. […] DMSO concentration during initial incubation is 6.7%. […] DMSO concentration during ERK activation was 4%. After one hour, reactions were terminated by addition of 60 μl IMAP detections beads in binding buffer (Molecular Devices). Binding was allowed to equilibrate for 30 minutes before reading the plate on an LJL Analyst Fluorescence Polarization plate reader.
Active ERK2 (aERK) Assay:
Activated ERK2 activity was also determined in the IMAP assay format using the procedure outlined above. […] Reactions proceeded for 30 minutes before termination by addition of 60 μl IMAP detection beads in binding buffer. Plates were read as above after 30 minute binding equilibration.

fully phosphorylated, active Mouse ERK2 protein, sequence (P63085 whole entry): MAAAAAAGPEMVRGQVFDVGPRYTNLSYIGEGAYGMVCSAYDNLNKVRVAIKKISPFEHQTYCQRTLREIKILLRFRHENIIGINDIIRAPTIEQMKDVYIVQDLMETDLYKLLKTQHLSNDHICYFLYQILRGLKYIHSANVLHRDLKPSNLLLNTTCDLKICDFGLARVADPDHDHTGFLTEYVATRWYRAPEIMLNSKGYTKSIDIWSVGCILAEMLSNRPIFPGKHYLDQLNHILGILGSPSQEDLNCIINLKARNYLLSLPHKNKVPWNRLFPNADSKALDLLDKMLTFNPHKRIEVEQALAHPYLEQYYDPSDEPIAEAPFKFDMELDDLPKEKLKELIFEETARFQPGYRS

Row | IC50 [µM] | Structure (SMILES)
1 | 0.825 | Cc1cc(-c2n[nH]c3ccc(C(=O)N[C@@H]4CCC[C@@](O)(Cn5cnc6ncccc65)C4)cc23)ccn1 (relative stereo) [compound 81, N-[cis-3-hydroxy-3-(1H-imidazo[4,5-b]pyridin-1-ylmethyl)cyclohexyl]-3-(2-methyl-4-pyridinyl)-1H-indazole-5-carboxamide]
2 | 0.0976 | Cc1cc(-c2n[nH]c3ccc(C(=O)N[C@@H]4CCC[C@@](O)(Cn5cnc6cccnc65)C4)cc23)ccn1 (relative stereo) [compound 82, N-[cis-3-hydroxy-3-(3H-imidazo[4,5-b]pyridin-3-ylmethyl)cyclohexyl]-3-(2-methyl-4-pyridinyl)-1H-indazole-5-carboxamide]
3 | 1 | Cc1cc(-c2n[nH]c3ccc(C(=O)N[C@@H]4CCC[C@](O)(Cn5ncccc5=O)C4)cc23)ccn1 (relative stereo) [compound 83, N-[trans-3-hydroxy-3-[(6-oxo-1(6h)-pyridazinyl)methyl]cyclohex-yl]-3-(2-methyl-4-pyridinyl)-1H-indazole-5-carboxamide]
4 | 1 | Cc1cc(-c2n[nH]c3ccc(C(=O)N[C@@H]4CCC[C@@](O)(Cn5ncccc5=O)C4)cc23)ccn1 (relative stereo) [compound 84, N-[cis-3-hydroxy-3-[(6-oxo-1(6h)-pyridazinyl)methyl]cyclohex-yl]-3-(2-methyl-4-pyridinyl)-1H-indazole-5-carboxamide]
5 | 1 | O=C(N[C@@H]1CCC[C@](O)(Cn2ccccc2=O)C1)c1ccc2[nH]nc(-c3ccc4nccn4c3)c2c1 (relative stereo) [compound 85, N-[trans-3-hydroxy-3-[(2-oxo-1(2h)-pyridinyl)methyl]cyclohexyl]-3-imidazo[1,2-a]pyridiN-6-yl-1H-indazole-5-carboxamide]
6 | 0.41 | Cc1cc(-c2n[nH]c3ccc(C(=O)N[C@@H]4CCC[C@](O)(Cn5ncc6cnccc65)C4)cc23)ccn1 (relative stereo) [compound 87, N-[trans-3-hydroxy-3-(1H-pyrazolo[4,3-c]pyridin-1-ylmethyl)cyclohexyl]-3-(2-methyl-4-pyridinyl)-1H-indazole-5-carboxamide]
7 | 0.497 | Cc1cc(-c2n[nH]c3ccc(C(=O)N[C@@H]4CCC[C@](O)(CN5C(=O)Cc6ccccc65)C4)cc23)ccn1 (relative stereo) [compound 88, N-[trans-3-[(2,3-dihydro-2-oxo-1H-indol-1-yl)methyl]-3-hydroxycyclohexyl]-3-(2-methyl-4-pyridinyl)-1H-indazole-5-carboxamide]
8 | 0.714 | Cc1cc(-c2n[nH]c3ccc(C(=O)N[C@@H]4CCC[C@](O)(Cn5c(=O)ccc6ccccc65)C4)cc23)ccn1 (relative stereo) [compound 89, N-[trans-3-hydroxy-3-[(2-oxo-1(2h)-quinolinyl)methyl]cyclohex-yl]-3-(2-methyl-4-pyridinyl)-1H-indazole-5-carboxamide]
9 | 0.0274 | Cc1cc(-c2n[nH]c3ccc(C(=O)N[C@@H]4CCC[C@](O)(Cn5cc6ccccc6n5)C4)cc23)ccn1 (relative stereo) [compound 90, N-[trans-3-hydroxy-3-(2H-indazol-2-ylmethyl)cyclohexyl]-3-(2-methyl-4-pyridinyl)-1H-indazole-5-carboxamide]
10 | 0.563 | Cc1cc(-c2n[nH]c3ccc(C(=O)N[C@@H]4CCC[C@@](O)(Cn5ncc6cnccc65)C4)cc23)ccn1 (relative stereo) [compound 91, N-[cis-3-hydroxy-3-(1H-pyrazolo[4,3-c]pyridin-1-ylmethyl)cyclohexyl]-3-(2-methyl-4-pyridinyl)-1H-indazole-5-carboxamide]
11 | 0.0108 | Cc1cc(-c2n[nH]c3ccc(C(=O)N[C@@H]4CCC[C@@](O)(CN5C(=O)Cc6ccccc65)C4)cc23)ccn1 (relative stereo) [compound 92, N-[cis-3-[(2,3-dihydro-2-oxo-1H-indol-1-yl)methyl]-3-hydroxycyclohexyl]-3-(2-methyl-4-pyridinyl)-1H-indazole-5-carboxamide]
12 | 0.165 | Cc1cc(-c2n[nH]c3ccc(C(=O)N[C@@H]4CCC[C@@](O)(Cn5c(=O)ccc6ccccc65)C4)cc23)ccn1 (relative stereo) [compound 93, N-[cis-3-hydroxy-3-[(2-oxo-1(2h)-quinolinyl)methyl]cyclohex-yl]-3-(2-methyl-4-pyridinyl)-1H-indazole-5-carboxamide]
13 | 0.035 | Cc1cc(-c2n[nH]c3ccc(C(=O)N[C@@H]4CCC[C@@](O)(Cn5cc6ccccc6n5)C4)cc23)ccn1 (relative stereo) [compound 94, N-[cis-3-hydroxy-3-(2H-indazol-2-ylmethyl)cyclohexyl]-3-(2-methyl-4-pyridinyl)-1H-indazole-5-carboxamide]
14 | 1 | Cc1cc(-c2n[nH]c3ccc(C(=O)N[C@H]4CCC[C@@](O)(Cn5cc(C#N)c6ccccc65)C4)cc23)ccn1 (relative stereo) [compound 95, N-[trans-3-[(3-cyano-1H-indol-1-yl)methyl]-3-hydroxycyclohexyl]-3-(2-methyl-4-pyridinyl)-1H-indazole-5-carboxamide]
15 | 0.577 | Cc1cc(-c2n[nH]c3ccc(C(=O)N[C@H]4CCC[C@@](O)(Cn5ncc6c(F)cccc65)C4)cc23)ccn1 (relative stereo) [compound 96, N-[trans-3-[(4-fluoro-1H-indazol-1-yl)methyl]-3-hydroxycyclohexyl]-3-(2-methyl-4-pyridinyl)-1H-indazole-5-carboxamide]
16 | 1 | Cc1cc(-c2n[nH]c3ccc(C(=O)N[C@H]4CCC[C@@](O)(Cn5cc6c(F)cccc6n5)C4)cc23)ccn1 (relative stereo) [compound 97, N-[trans-3-[(4-fluoro-2H-indazol-2-yl)methyl]-3-hydroxycyclohexyl]-3-(2-methyl-4-pyridinyl)-1H-indazole-5-carboxamide]
17 | 1 | Cc1cc(-c2n[nH]c3ccc(C(=O)N[C@H]4CCC[C@@](O)(Cn5ncc6cc(F)ccc65)C4)cc23)ccn1 (relative stereo) [compound 98, N-[trans-3-[(5-fluoro-1H-indazol-1-yl)methyl]-3-hydroxycyclohexyl]-3-(2-methyl-4-pyridinyl)-1H-indazole-5-carboxamide]
18 | 1 | Cc1cc(-c2n[nH]c3ccc(C(=O)N[C@H]4CCC[C@@](O)(Cn5cc6cc(F)ccc6n5)C4)cc23)ccn1 (relative stereo) [compound 99, N-[trans-3-[(5-fluoro-2H-indazol-2-yl)methyl]-3-hydroxycyclohexyl]-3-(2-methyl-4-pyridinyl)-1H-indazole-5-carboxamide]
19 | 1 | Cc1cc(-c2n[nH]c3ccc(C(=O)N[C@H]4CCC[C@@](O)(Cn5ncc6ccc(F)cc65)C4)cc23)ccn1 (relative stereo) [compound 100, N-[trans-3-[(6-fluoro-1H-indazol-1-yl)methyl]-3-hydroxycyclohexyl]-3-(2-methyl-4-pyridinyl)-1H-indazole-5-carboxamide]
20 | 0.704 | Cc1cc(-c2n[nH]c3ccc(C(=O)N[C@H]4CCC[C@@](O)(Cn5cc6cccc(F)c6n5)C4)cc23)ccn1 (relative stereo) [compound 102, N-[trans-3-[(7-fluoro-2H-indazol-2-yl)methyl]-3-hydroxycyclohexyl]-3-(2-methyl-4-pyridinyl)-1H-indazole-5-carboxamide]

Source: patent US9351965B2, “Indazole derivatives useful as ERK inhibitors” (Merck Sharp & Dohme Corp., priority 2010, dated 2016)
